Laboratory results from patent publication US20030229053A1, “Compounds and methods for the treatment or prevention of flavivirus infections” (Shire BioChem Inc., priority 2001, published 2003).

Each compound was assayed against HCV NS5B RNA-dependent RNA polymerase (Hepatitis C virus genotype 1b, UniProt P26663) (assay: In vitro RNA-dependent RNA polymerase assay (Assay 1), polyA/oligo dT, TCA precipitation). Conditions: not given.
Type: biochemical
Procedure: Purification of Recombinant NS5B Using Fast Protein Liquid Chromatography (FPLC):
Soluble NS5B protein in the S3 fraction was diluted to lower the NaCl concentration to 300 mM, then it incubated batchwise with DEAE sepharose beads (Amersham-Pharmacia) for 2 hrs at 4° C., as described by Behrens et al. (1996). Unbound material was cleared by centrifugation for 15 min at 4° C., at 25,000 rpm using a SW41 rotor (Beckman). The supernatant was further diluted to lower the NaCl concentration to 200 mM and subsequently loaded, with a flow rate of 1 ml/min, on a 5 ml HiTrap® heparin column (Amersham-Pharmacia) connected to an FPLC® system (Amersham-Pharmacia). Bound proteins were eluted in 1 ml fractions, using a continuous NaCl gradient of 0.2 to 1 M, over a 25 ml volume. NS5B-containing fractions were identified by sodium dodecyl sulfate polyacrylamide gel electrophoresis (SDS-PAGE), followed by western blotting using the anti-NS5B antiserum at a dilution of 1:2000. Positive fractions were pooled and the elution buffer was exchanged against a 50 mM NaPO4 pH 7.0, 20% glycerol, 0.5% triton X-100 and 10 mM DTT, using a PD-10 column (Amersham-Pharmacia). The sample was then loaded onto a 1 ml HiTrap® SP column (Amersham-Pharmacia), with a flow rate of 0.1 ml/min. Bound proteins were eluted using a continuous 0 to 1 M NaCl gradient over a 15 ml volume. Eluted fractions were analyzed by SDS-PAGE and western blotting. Alternatively, proteins were visualized, following SDS-PAGE, by silver staining using the Silver Stain Plus kit (BioRad) as described by the manufacturer. […]
In vitro RNA-dependent RNA Polymerase Assays Used to Evaluate Biaryl Analogues (Assay 1):
RdRp assays were conducted using the homopolymeric template/primer polyA/oligo dT. All RdRp reactions were performed in a total volume of 50 μl, and in a basic buffer consisting of 20 mM Tris-HCl pH 7.5, 1 mM DTT, 50 mM NaCl, 5 mM MgCl2, 0.5 μCi […] (3000 Ci/mmol), 15 μM cold UTP and 20 U RNasin (Promega). Standard HCV RdRp reactions contained 200 ng of purified NS5B protein. PolyA RNAs (Amersham-Pharmacia) was resuspended at 400 ng/μl. The primer oligodT15 (Canadian life technologies) was diluted to a concentration of […] (7.6 ng/μl). Templates and primers were mixed volume to volume, denatured at 95° C. for 5 min and annealed at 37° C. for 10 min. Following a two hour incubation at 22° C., reactions were stopped by the addition of 100 μg of sonicated salmon sperm DNA (Life Technologies) and 1 ml of 10% trichloroacetic acid-0.5% tetrasodium pyrophosphate (TCA-PPi). Nucleic acids were precipitated at 4° C. for 30 min after which samples were filtered on GF/C glass microfiber filters (Millipore). Membranes were subsequently washed with 25 ml of a 1% TCA-0.1% PPi solution, then air dried. Incorporated radioactivity was quantified using a liquid scintillation counter (1450-Microbeta, Wallac). Results are shown in Table 1, in the column indicated as Assay 1.

Sequence of HCV NS5B RNA-dependent RNA polymerase (P26663 2420-3010 limits assumed): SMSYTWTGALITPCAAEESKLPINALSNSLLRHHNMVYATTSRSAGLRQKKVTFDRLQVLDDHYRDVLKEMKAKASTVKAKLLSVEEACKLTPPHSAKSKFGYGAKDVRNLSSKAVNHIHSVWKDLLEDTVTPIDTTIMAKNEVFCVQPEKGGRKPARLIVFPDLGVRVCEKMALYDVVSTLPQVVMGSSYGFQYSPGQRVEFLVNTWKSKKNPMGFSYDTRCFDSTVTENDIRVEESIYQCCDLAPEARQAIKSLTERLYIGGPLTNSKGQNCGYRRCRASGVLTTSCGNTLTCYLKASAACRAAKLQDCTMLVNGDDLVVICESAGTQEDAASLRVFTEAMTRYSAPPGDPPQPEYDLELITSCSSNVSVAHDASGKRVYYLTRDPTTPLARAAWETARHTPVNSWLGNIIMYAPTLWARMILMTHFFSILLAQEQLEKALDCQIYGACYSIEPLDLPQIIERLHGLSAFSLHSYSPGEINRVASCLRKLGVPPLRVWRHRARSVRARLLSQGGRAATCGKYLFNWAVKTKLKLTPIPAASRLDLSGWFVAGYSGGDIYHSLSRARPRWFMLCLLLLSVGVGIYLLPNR

SMILES | IC50
O=C(O)[C@H](Cc1ccccc1)N(Cc1cccc(Br)c1)C(=O)c1ccc(Cl)cc1Br [compound #36, (2s)-2-[(3-Bromo-benzyl)-(2-bromo-4-chloro-benzoyl)-amino]-3-phenyl-propionic acid] | < 5 µM
Cc1cc(Cl)ccc1C(=O)N(Cc1cccc(-c2cc3ccccc3o2)c1)[C@@H](Cc1ccccc1)C(=O)O [compound #48, (2s)-2-[(3-Benzofuran-2-yl-benzyl)-(4-chloro-2-methyl-benzoyl)-amino]-3-phenyl-propionic acid] | < 5 µM
O=C(O)[C@H](Cc1ccccc1)N(Cc1cccc(F)c1)C(=O)c1ccc(Cl)cc1Cl [compound #51, (2s)-2-[(2,4-Dichloro-benzoyl)-(3-fluoro-benzyl)-amino]-3-phenyl-propionic acid] | < 5 µM

Same assay, conditions: polyA/oligo dT template/primer, 200 ng NS5B, 2 h at 22° C.; read-out: RNA pol Assay 1 IC50 (μm)

IC50 | SMILES
< 5 µM | Cc1ccc(C(=O)N(Cc2cccc(Br)c2)[C@@H](Cc2ccccc2)C(=O)O)c(C)c1 [compound #28, (2s)-2-[(3-Bromo-benzyl)-(2,4-dimethyl-benzoyl)-amino]-3-phenyl-propionic acid]
< 5 µM | Cc1ccc(C(=O)N(Cc2cccc(-c3cc4ccccc4o3)c2)[C@@H](Cc2ccccc2)C(=O)O)c(C)c1 [compound #31, (2s)-2-[(3-Benzofuran-2-yl-benzyl)-(2,4-dimethyl-benzoyl)-amino]-3-phenyl-propionic acid]
< 5 µM | COc1cc(C)c(S(=O)(=O)N(Cc2ccc(-c3cc4ccccc4o3)cc2)[C@@H](Cc2ccc(O)cc2)C(=O)O)c(C)c1C [compound #32, (2s)-2-[(4-Benzofuran-2-yl-benzyl)-(4-methoxy-2,3,6-trimethyl-benzenesulfonyl)-amino]-3-(4-hydroxy-phenyl)-propionic acid]
< 5 µM | O=C(O)[C@H](Cc1ccc(O)cc1)N(Cc1ccc(-c2cc3ccccc3o2)cc1)C(=O)c1ccc(Cl)cc1Cl [compound #33, (2s)-2-[(4-Benzofuran-2-yl-benzyl)-(2,4-dichloro-benzoyl)-amino]-3-(4-hydroxy-phenyl)-propionic acid]
< 5 µM | Cc1cc(Cl)ccc1C(=O)N(Cc1cccc(Br)c1)[C@@H](Cc1ccccc1)C(=O)O [compound #34, (2s)-2-[(3-Bromo-benzyl)-(4-chloro-2-methyl-benzoyl)-amino]-3-phenyl-propionic acid]
< 5 µM | O=C(O)[C@H](Cc1ccccc1)N(Cc1cccc(Br)c1)C(=O)c1ccc(Cl)cc1I [compound #35, (2s)-2-[(3-Bromo-benzyl)-(4-chloro-2-iodo-benzoyl)-amino]-3-phenyl-propionic acid]
< 5 µM | O=C(O)[C@H](Cc1ccccc1)N(Cc1cccc(-c2cc3ccccc3o2)c1)C(=O)Cc1ccc(Cl)cc1Cl [compound #37, (2s)-2-{(3-Benzofuran-2-yl-benzyl)-[(2,4-dichloro-phenyl)-acetyl]-amino}-3-phenyl-propionic acid]
< 5 µM | O=C(O)[C@H](Cc1ccccc1)N(Cc1ccc(-c2cc3ccccc3o2)cc1)c1ccc(Cl)cc1Cl [compound #38, (2s)-2-[(4-Benzofuran-2-yl-benzyl)-(2,4-dichloro-phenyl)-amino]-3-phenyl-propionic acid]
< 5 µM | O=C(O)[C@H](Cc1ccccc1)N(Cc1ccc2ccccc2c1)C(=O)c1ccc(Cl)cc1Cl [compound #39, (2s)-2-[(2,4-Dichloro-benzoyl)-naphthalen-2-ylmethyl-amino]-3-phenyl-propionic acid]
< 5 µM | O=C1c2ccccc2C(=O)c2cc(CN(C(=O)c3ccc(Cl)cc3Cl)[C@@H](Cc3ccccc3)C(=O)O)ccc21 [compound #40, (2s)-2-[(2,4-Dichloro-benzoyl)-(9,10-dioxo-9,10-dihydro-anthracen-2-ylmethyl)-amino]-3-phenyl-propionic acid]
< 5 µM | O=C(c1cccc(Cl)c1)c1cccc(CN(C(=O)c2ccc(Cl)cc2Cl)[C@@H](Cc2ccccc2)C(=O)O)c1 [compound #41, (2s)-2-[[3-(3-Chloro-benzoyl)-benzyl]-(2,4-dichloro-benzoyl)-amino]-3-phenyl-propionic acid]
< 5 µM | O=C(c1cccc(CN(C(=O)c2ccc(Cl)cc2Cl)[C@@H](Cc2ccccc2)C(=O)O)c1)c1ccc(F)cc1F [compound #42, (2s)-2-{(2,4-Dichloro-benzoyl)-[3-(2,4-difluoro-benzoyl)-benzyl]-amino}-3-phenyl-propionic acid]
< 5 µM | Cc1onc(-c2ccccc2Cl)c1C(=O)c1cccc(CN(C(=O)c2ccc(Cl)cc2Cl)[C@@H](Cc2ccccc2)C(=O)O)c1 [compound #43, (2s)-2-[{3-[3-(2-Chloro-phenyl)-5-methyl-isoxazole-4-carbonyl]-benzyl}-(2,4-dichloro-benzoyl)-amino]-3-phenyl-propionic acid]
< 5 µM | O=C(c1cccc(CN(C(=O)c2ccc(Cl)cc2Cl)[C@@H](Cc2ccccc2)C(=O)O)c1)c1ccc(Cl)cc1Cl [compound #44, (2s)-2-{(2,4-Dichloro-benzoyl)-[3-(2,4-dichloro-benzoyl)-benzyl]-amino}-3-phenyl-propionic acid]
< 5 µM | O=C(O)[C@H](Cc1ccccc1)N(Cc1cccc(-c2nc3ccccc3o2)c1)C(=O)c1ccc(Cl)cc1Cl [compound #45, (2s)-2-[(3-Benzooxazol-2-yl-benzyl)-(2,4-dichloro-benzoyl)-amino]-3-phenyl-propionic acid]
< 5 µM | CCc1cc(Cl)ccc1C(=O)N(Cc1cccc(Br)c1)[C@@H](Cc1ccccc1)C(=O)O [compound #46, (2s)-2-[(3-Bromo-benzyl)-(4-chloro-2-ethyl-benzoyl)-amino]-3-phenyl-propionic acid]
< 5 µM | O=C(O)[C@H](CC1CCCCC1)N(Cc1ccc(-c2cc3ccccc3o2)cc1)C(=O)c1ccc(Cl)cc1Cl [compound #47, (2s)-2-[(4-Benzofuran-2-yl-benzyl)-(2,4-dichloro-benzoyl)-amino]-3-cyclohexyl-propionic acid]
< 5 µM | O=C(O)[C@H](Cc1ccccc1)N(Cc1cccc(-c2cc3ccccc3o2)c1)C(=O)c1ccc(Cl)cc1Br [compound #49, (2s)-2-[(3-Benzofuran-2-yl-benzyl)-(2-bromo-4-chloro-benzoyl)-amino]-3-phenyl-propionic acid]
< 5 µM | C=Cc1cc(Cl)ccc1C(=O)N(Cc1cccc(Br)c1)[C@@H](Cc1ccccc1)C(=O)O [compound #50, (2s)-2-[(3-Bromo-benzyl)-(4-chloro-2-vinyl-benzoyl)-amino]-3-phenyl-propionic acid]
< 5 µM | O=C(O)[C@H](Cc1ccccc1)N(Cc1cccc(Cl)c1)C(=O)c1ccc(Cl)cc1Cl [compound #52, (2s)-2-[(3-Chloro-benzyl)-(2,4-dichloro-benzoyl)-amino]-3-phenyl-propionic acid]
5 to 20 µM | O=C(O)[C@H](Cc1ccccc1)N(Cc1ccc(-c2cccc(Cl)c2)o1)C(=O)c1ccccc1Cl [compound #55, (2s)-2-{(2-Chloro-benzoyl)-[5-(3-chloro-phenyl)-furan-2-ylmethyl]-amino}-3-phenyl-propionic acid]
< 5 µM | O=C(O)[C@H](Cc1ccccc1)N(Cc1ccc(-c2cccc(C(F)(F)F)c2)o1)C(=O)c1ccc(Cl)cc1Cl [compound #56, (2s)-2-{(2,4-Dichloro-benzoyl)-[5-(3-trifluoromethyl-phenyl)-furan-2-ylmethyl]-amino}-3-phenyl-propionic acid]
5 to 20 µM | O=C(O)[C@H](Cc1ccccc1)N(Cc1ccc(Br)o1)C(=O)c1ccc(Cl)cc1Cl [compound #57, (2s)-2-[(5-Bromo-furan-2-ylmethyl)-(2,4-dichloro-benzoyl)-amino]-3-phenyl-propionic acid]
< 5 µM | O=C(O)[C@H](Cc1ccccc1)N(Cc1ccc(-c2cc3ccccc3o2)o1)C(=O)c1ccc(Cl)cc1Cl [compound #58, (2s)-2-[(5-Benzofuran-2-yl-furan-2-ylmethyl)-(2,4-dichloro-benzoyl)-amino]-3-phenyl-propionic acid]
